Test results published in US8076487B2, “Pyridone derivative and herbicide” (Kumiai Chemical Industry Co., Ltd., priority 2006, dated 2011).

What was measured:
Assay type in all cases: in vivo
[1] = test system: Japanese bulrush (Scirpus juncoides Roxb.); assay: Test Example 1: herbicidal effect by soil application to paddy field; settings: for herbicidal effect, Scirpus juncoides Roxb.: paddy field soil application, active ingredient 1,000 g per 1 hectare, wettable powder added dropwise to water surface the day after sowing, examined on the 21st day after application
Summary of the method: (§1)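 Plants were sown in flooded (3 cm) paddy soil and evaluated for herbicidal effect 21 days after soil application in a greenhouse.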

[2] = test system: early watergrass (Echinochloa oryzicola Vasing); assay: as above; settings: for herbicidal effect, Echinochloa oryzicola Vasing: paddy field soil application, active ingredient 1,000 g per 1 hectare, wettable powder added dropwise to water surface the day after sowing, examined on the 21st day after application
Summary of the method: as §1

[3] = test system: heartshape false pickerelweed (Monochoria vaginalis (Burm.f.) C.Presl); assay: as above; settings: for herbicidal effect, Monochoria vaginalis (Burm. f.) C. Presl: paddy field soil application, active ingredient 1,000 g per 1 hectare, wettable powder added dropwise to water surface the day after sowing, examined on the 21st day after application
Summary of the method: as §1

[4] = test system: barnyardgrass (Echinochloa crus-galli (L.) P. Beauv. var. crus-galli); assay: Test Example 2: herbicidal effect by soil application to upland field; settings: soil surface spray, upland field soil, 1,000 g active ingredient per hectare, 21st day after application
Summary of the method: (§2)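 Using a small sprayer, we treat the soil surface of pots just after sowing and covering seeds. The aqueous wettable powder supplies 1,000 g a.i./ha in 1,000 L water/ha; after greenhouse growth, injury is scored on day 21 using a standard rating.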

[5] = test system: green foxtail (Setaria viridis (L.) P. Beauv.); assay: as above; settings: soil surface spray, upland field soil, 1,000 g active ingredient per hectare, 21st day after application
Summary of the method: as §2

[6] = test system: slender amaranth (Amaranthus viridis L.); assay: as above; settings: soil surface spray, upland field soil, 1,000 g active ingredient per hectare, 21st day after application
Summary of the method: as §2

[7] = test system: velvetleaf (Abutilon theophrasti medicus); assay: as above; settings: soil surface spray, upland field soil, 1,000 g active ingredient per hectare, 21st day after application
Summary of the method: as §2

[8] = test system: barnyardgrass (Echinochloa crus-galli (L.) P. Beauv. var. crus-galli); assay: Test Example 3: herbicidal effect by application to upland field (foliage treatment); settings: 14th day after application; for herbicidal effect (index), Barnyardgrass: foliage treatment, plants grown two weeks, 1,000 g active ingredient per hectare; for herbicidal effect, Barnyardgrass: foliage treatment, 1,000 g active ingredient per 1 hectare, greenhouse
Summary of the method: (§3)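 Upland foliage test in greenhouse pots of field soil: seedlings sprayed at two weeks post-sowing with 1,000 g/ha active ingredient (wettable powder, 1,000 L water/ha). Scored 14 d after application.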

[9] = test system: green foxtail (Setaria viridis (L.) P. Beauv.); assay: as above; settings: 14th day after application; for herbicidal effect (index), Green Foxtail: foliage treatment, plants grown two weeks, 1,000 g active ingredient per hectare; for herbicidal effect, Green Foxtail: foliage treatment, 1,000 g active ingredient per 1 hectare, greenhouse
Summary of the method: as §3

[10] = test system: slender amaranth (Amaranthus viridis L.); assay: as above; settings: 14th day after application; for herbicidal effect (index), Slender Amaranth: foliage treatment, plants grown two weeks, 1,000 g active ingredient per hectare; for herbicidal effect, Slender Amaranth: foliage treatment, 1,000 g active ingredient per 1 hectare, greenhouse
Summary of the method: as §3

[11] = test system: velvetleaf (Abutilon theophrasti medicus); assay: as above; settings: 14th day after application; for herbicidal effect (index), Velvetleaf: foliage treatment, plants grown two weeks, 1,000 g active ingredient per hectare; for herbicidal effect, Velvetleaf: foliage treatment, 1,000 g active ingredient per 1 hectare, greenhouse
Summary of the method: as §3

[12] = soil application to paddy field, rated by standard of Table 34

Row | SMILES | herbicidal effect, Scirpus juncoides Roxb. [1] | herbicidal effect, Echinochloa oryzicola Vasing [2] | herbicidal effect, Monochoria vaginalis (Burm. f.) C. Presl [3] | herbicidal effect (index), Barnyardgrass [4] | herbicidal effect (index), Green Foxtail [5] | herbicidal effect (index), Slender Amaranth [6] | herbicidal effect (index), Velvetleaf [7] | herbicidal effect (index), Barnyardgrass [8] | herbicidal effect (index), Green Foxtail [9] | herbicidal effect (index), Slender Amaranth [10] | herbicidal effect (index), Velvetleaf [11] | herbicidal effect, Barnyardgrass [8] | herbicidal effect, Green Foxtail [9] | herbicidal effect, Slender Amaranth [10] | herbicidal effect, Velvetleaf [11] | herbicidal effect (index), Scirpus juncoides Roxb. [1, 12] | herbicidal effect (index), Echinochloa oryzicola Vasing [2, 12] | herbicidal effect (index), Monochoria vaginalis (Burm.f.) C.Presl [3, 12]
1 | N#Cc1cccc(-n2c(C(F)(F)F)ccc(C(=O)C3=C(O)CCCC3=O)c2=O)c1 [I-94] | 5 (90% or more of herbicidal effect and crop phytotoxicity) | 5 (90% or more of herbicidal effect and crop phytotoxicity) | 5 (90% or more of herbicidal effect and crop phytotoxicity) | 5 (90% or more of herbicidal effect and crop phytotoxicity) | 5 (90% or more of herbicidal effect and crop phytotoxicity) | 5 (90% or more of herbicidal effect and crop phytotoxicity) | 5 (90% or more of herbicidal effect and crop phytotoxicity) | 5 (90% or more of herbicidal effect and crop phytotoxicity) | 5 (90% or more of herbicidal effect and crop phytotoxicity) | 5 (90% or more of herbicidal effect and crop phytotoxicity) | 5 (90% or more of herbicidal effect and crop phytotoxicity) |  |  |  |  |  |  | 
2 | O=C1CCCC(O)=C1C(=O)c1ccc(C(F)(F)F)n(-c2ccsc2)c1=O [I-148] | 5 (90% or more of herbicidal effect and crop phytotoxicity) | 5 (90% or more of herbicidal effect and crop phytotoxicity) | 5 (90% or more of herbicidal effect and crop phytotoxicity) | 5 (90% or more of herbicidal effect and crop phytotoxicity) | 5 (90% or more of herbicidal effect and crop phytotoxicity) | 5 (90% or more of herbicidal effect and crop phytotoxicity) | 5 (90% or more of herbicidal effect and crop phytotoxicity) |  |  |  |  | 5 (90% or more of herbicidal effect and crop phytotoxicity) | 5 (90% or more of herbicidal effect and crop phytotoxicity) | 5 (90% or more of herbicidal effect and crop phytotoxicity) | 5 (90% or more of herbicidal effect and crop phytotoxicity) |  |  | 
3 | O=C1CCCC(O)=C1C(=O)c1ccc2ccccc2n1 [Comparative Compound 2, reference compound] |  |  |  | 3 (50 to less than 70% of herbicidal effect and crop phytotoxicity) | 0 (0 to less than 10% of herbicidal effect and crop phytotoxicity) | 2 (30 to less than 50% of herbicidal effect and crop phytotoxicity) | 2 (30 to less than 50% of herbicidal effect and crop phytotoxicity) |  |  |  |  | 0 (0 to less than 10% of herbicidal effect and crop phytotoxicity) | 0 (0 to less than 10% of herbicidal effect and crop phytotoxicity) | 1 (10 to less than 30% of herbicidal effect and crop phytotoxicity) | 5 (90% or more of herbicidal effect and crop phytotoxicity) | 0 (0 to less than 10% of herbicidal effect and crop phytotoxicity) | 0 (0 to less than 10% of herbicidal effect and crop phytotoxicity) | 0 (0 to less than 10% of herbicidal effect and crop phytotoxicity)
4 | CCCNn1c(C(F)(F)F)ccc(C(=O)c2cnn(C)c2O)c1=O [IV-148] | 5 (90% or more of herbicidal effect and crop phytotoxicity) | 5 (90% or more of herbicidal effect and crop phytotoxicity) | 5 (90% or more of herbicidal effect and crop phytotoxicity) | 5 (90% or more of herbicidal effect and crop phytotoxicity) | 5 (90% or more of herbicidal effect and crop phytotoxicity) | 5 (90% or more of herbicidal effect and crop phytotoxicity) | 5 (90% or more of herbicidal effect and crop phytotoxicity) |  |  |  |  | 5 (90% or more of herbicidal effect and crop phytotoxicity) | 5 (90% or more of herbicidal effect and crop phytotoxicity) | 5 (90% or more of herbicidal effect and crop phytotoxicity) | 5 (90% or more of herbicidal effect and crop phytotoxicity) |  |  | 
5 | CCCS(=O)(=O)Oc1c(C(=O)c2ccc(C(F)(F)F)n(CC3CCCO3)c2=O)cnn1C (stereo not shown) [IV-140] | 5 (90% or more of herbicidal effect and crop phytotoxicity) | 5 (90% or more of herbicidal effect and crop phytotoxicity) | 5 (90% or more of herbicidal effect and crop phytotoxicity) | 5 (90% or more of herbicidal effect and crop phytotoxicity) | 5 (90% or more of herbicidal effect and crop phytotoxicity) | 5 (90% or more of herbicidal effect and crop phytotoxicity) | 5 (90% or more of herbicidal effect and crop phytotoxicity) |  |  |  |  | 5 (90% or more of herbicidal effect and crop phytotoxicity) | 3 (50 to less than 70% of herbicidal effect and crop phytotoxicity) | 5 (90% or more of herbicidal effect and crop phytotoxicity) | 5 (90% or more of herbicidal effect and crop phytotoxicity) |  |  | 
6 | CCCSCn1c(C(F)(F)F)ccc(C(=O)C2=C(O)CCCC2=O)c1=O [I-50] | 5 (90% or more of herbicidal effect and crop phytotoxicity) | 5 (90% or more of herbicidal effect and crop phytotoxicity) | 5 (90% or more of herbicidal effect and crop phytotoxicity) | 5 (90% or more of herbicidal effect and crop phytotoxicity) | 5 (90% or more of herbicidal effect and crop phytotoxicity) | 5 (90% or more of herbicidal effect and crop phytotoxicity) | 5 (90% or more of herbicidal effect and crop phytotoxicity) | 5 (90% or more of herbicidal effect and crop phytotoxicity) | 3 (50 to less than 70% of herbicidal effect and crop phytotoxicity) | 5 (90% or more of herbicidal effect and crop phytotoxicity) | 5 (90% or more of herbicidal effect and crop phytotoxicity) |  |  |  |  |  |  | 
7 | O=C(C1=C(O)C2CCC(C2)C1=O)c1ccc(C(F)(F)F)n(CC2CCCO2)c1=O (stereo not shown) [III-38] | 5 (90% or more of herbicidal effect and crop phytotoxicity) | 5 (90% or more of herbicidal effect and crop phytotoxicity) | 5 (90% or more of herbicidal effect and crop phytotoxicity) | 5 (90% or more of herbicidal effect and crop phytotoxicity) | 3 (50 to less than 70% of herbicidal effect and crop phytotoxicity) | 5 (90% or more of herbicidal effect and crop phytotoxicity) | 5 (90% or more of herbicidal effect and crop phytotoxicity) |  |  |  |  | 5 (90% or more of herbicidal effect and crop phytotoxicity) | 4 (70 to less than 90% of herbicidal effect and crop phytotoxicity) | 5 (90% or more of herbicidal effect and crop phytotoxicity) | 5 (90% or more of herbicidal effect and crop phytotoxicity) |  |  | 
8 | CCCS(=O)(=O)Oc1c(C(=O)c2ccc(C(F)(F)F)n(CC(C)OC)c2=O)cnn1C (stereo not shown) [IV-39] | 5 (90% or more of herbicidal effect and crop phytotoxicity) | 5 (90% or more of herbicidal effect and crop phytotoxicity) | 5 (90% or more of herbicidal effect and crop phytotoxicity) | 5 (90% or more of herbicidal effect and crop phytotoxicity) | 3 (50 to less than 70% of herbicidal effect and crop phytotoxicity) | 4 (70 to less than 90% of herbicidal effect and crop phytotoxicity) | 4 (70 to less than 90% of herbicidal effect and crop phytotoxicity) |  |  |  |  | 5 (90% or more of herbicidal effect and crop phytotoxicity) | 3 (50 to less than 70% of herbicidal effect and crop phytotoxicity) | 5 (90% or more of herbicidal effect and crop phytotoxicity) | 5 (90% or more of herbicidal effect and crop phytotoxicity) |  |  | 
